# Legend:
# [1] = Plasma stability, human plasma; assay type: in vitro ADME; conditions: 2.0 µM, 37°C
# Description: (§1) At 37°C, 2.0 µM of the compound was co-incubated with plasma samples from five species (mouse, rat, dog, cynomolgus monkey, human) for 120 minutes. The concentration of the compound in the samples was detected by the liquid chromatography-tandem mass spectrometry (LC-MS/MS) method, and the half-life (T1/2) was calculated.
# [2] = Plasma stability, rat plasma; assay type: in vitro ADME; conditions: 37°C; for remaining amount in plasma: rat plasma, 2.0 µM
# Description: as §1
# CT26 colon cancer = test: Inhibition of CT26 colon cancer in BALB/c mice (Example 47, 5 mg/kg); assay type: in vivo; conditions: gavaged daily, two consecutive weeks
# Description: In this example, the inhibitory effects of Compounds 9, 11-3, 25, 26, 27, and DU102 on colon cancer growth were tested.
# Murine CT26 cells were inoculated into the left abdomen of 6-week-old male mice at a dose of 5×10^5 cells per mouse. Approximately 7 days later, the mice were randomly divided into two groups: the control group or the compound treatment group. They were gavaged daily with either the vehicle control (ddH2O or 5% DMSO in corn oil) or 5 mg/kg of Compounds 9, 11-3, 25, 26, or 27 (dissolved in the corresponding vehicle) for two consecutive weeks. Tumor diameters were measured every 2-3 days using a digital caliper (ULINE, Cat^# H-7352), and the tumor volume was calculated using the formula ½ × longitudinal diameter (length) × maximum transverse diameter (width). When the maximum tumor volume reached 2000 mm^3, the mice were euthanized.
# [3] = Permeability in Caco-2 cells; assay type: in vitro ADME; conditions: human, Caco-2, pH 7.4, 2.00 µM
# Description: (§2) The permeability of Compound 9 was evaluated using Caco-2 cells. The transport buffer used in this study was HBSS with 10.0 mM HEPES, pH 7.40±0.05. The test concentration was 2.00 µM, and a bidirectional test was performed on the test compound. Digoxin was repeatedly tested bidirectionally at 10.0 µM, while nadolol and metoprolol were repeatedly tested in the A-B direction at 2.00 µM. The final DMSO concentration was adjusted to less than 1%. The mixture was incubated at 37.0°C, 5% CO2, saturated humidity, without shaking in a CO2 incubator for 2 hours. All samples were mixed with acetonitrile containing internal standards and centrifuged at 3220 × g for 10 mins. The concentrations of the test compound and reference compound in the initial solution, donor solution, and acceptor solution were determined by the LC-MS/MS, using the analyte/internal standard peak area ratio.
# Caco-2 cells = test: Permeability in Caco-2 cells; assay type: in vitro ADME; conditions: Caco-2, conclusion in words
# Description: as §2
structure (smiles),measurement,setting,value
"Cc1csc2ncnc(Nc3ccc4c(c3)ncn4C)c12 [Compound 9, 5-Methyl-N-(1-methyl-1H-benzo[d]imidazol-5-yl)thieno[2,3-d]pyrimidin-4-amine]",remaining amount in plasma,[1]; time point 0 min,100.0%
same,remaining amount in plasma,[1]; time point 10 min,99.8%
same,remaining amount in plasma,[1]; time point 30 min,108.9%
same,remaining amount in plasma,[1]; time point 60 min,113.3%
same,remaining amount in plasma,[1]; time point 120 min,104.6%
same,half-life at 2 µM,"[2]; plasma, printed in the Rat row",> 4.82 h
same,remaining amount in plasma,[2]; time point 0 min,100.0%
same,remaining amount in plasma,[2]; time point 10 min,102.1%
same,remaining amount in plasma,[2]; time point 30 min,93.5%
same,remaining amount in plasma,[2]; time point 60 min,99.3%
same,remaining amount in plasma,[2]; time point 120 min,93.2%
same,size of murine colon cancer,CT26 colon cancer; FIG. 9A,size of murine colon cancer inhibited
same,weight of murine colon cancer,CT26 colon cancer; FIG. 9B,weight of murine colon cancer reduced significantly
same,inhibition of CT26 colon cancer,CT26 colon cancer; FIG. 9 and FIG. 10,effectively inhibit CT26 colon cancer
same,"Papp A→B at 2 h, 2 µM","[3]; 2 hours, pH 7.40±0.05",29 ×10⁻⁶ cm/s
same,"Papp B→A at 2 h, 2 µM","[3]; 2 hours, pH 7.40±0.05",20.7 ×10⁻⁶ cm/s
same,"efflux ratio at 2 h, 2 µM","[3]; bidirectional, read-out: Efflux Ratio (ER)",0.714
same,cellular permeability,Caco-2 cells,high cellular permeability
same,substrate of the efflux transporter P-gp,Caco-2 cells,unlikely to be a substrate of the efflux transporter P-gp

# Source: patent EP4755891A1, “ARF1 INHIBITOR AND USE THEREOF” (AOBIO PHARMACEUTICAL CO., LTD., priority 2023, dated 2025)
